Experimental data as given in the NIST ThermoML archive (doi:10.1021/je400830w).
Numbers after ± are expanded uncertainties.

How the values were obtained:
[1] = 100 kPa, Liquid; for viscosity: Falling or rolling sphere viscometry; for mass density: Vibrating tube method
[2] = refractive index (Na D-line) (dimensionless); settings: 100 kPa, Liquid, Standard Abbe refractometry

NCCO [2-aminoethan-1-ol]
Settings	mass density, [1] [kg/m3]	refractive index, [2]	viscosity, [1] [mPa·s]
298.15 K	1012.38 ± 0.25	1.45406 ± 0.00037	18.89 ± 0.18
303.15 K	1009.35 ± 0.25	1.45241 ± 0.00037	15.11 ± 0.14
313.15 K	1002.16 ± 0.24	1.449 ± 0.001	10.03 ± 0.094
323.15 K	994.4 ± 0.24	1.44522 ± 0.00037	6.983 ± 0.065
333.15 K	986.24 ± 0.24	1.44198 ± 0.00037	4.972 ± 0.047
